For data set [1], the system named is DLBCL cell lines. Kind of data set: Cell death assay (CellTiter-Glo 2.0), several lines stated together. The format is cell-based, human. The method, then: Plotted points are means of duplicates+/−S.E.M., normalized to an untreated control that received the same pre-treatment, and fitted using nonlinear regression.
(§1) Cell Death Assays Treatments were prepared in 96-well plates in 50 μL at 2× concentration. Cells were suspended at 0.2 million cells per mL, and 50 μL (10,000 cells) were added to each well and pipette-mixed. The plates were incubated for 24-72 hours, depending on the experiment, then 100 μL of CellTiter-Glo 2.0 (Promega) was added and pipette-mixed, followed by luminescence reading (SpectraMax iD5, Molecular Devices).
In general terms: Cellular ATP, detected with luciferase, serves as a proxy for viable cell number.

Data set [2] has as its system OCI-Ly3. As to the kind of experiment: Cell death assay (CellTiter-Glo 2.0). The format is cell-based, human. The following applies: 24 h ATSP-7041 pre-treatment, then BH3 mimetic. The method, then:
as §1
(§2) First, SU-DHL-5 was treated with equivalent doses of SAH-MS1-18 either as a free drug, inside of αCD19- or αOspA-PSOMs, or on the outside of empty αCD19- or αOspA-PSOMs (FIG. 14A). […] Other DLBCL cell lines, including OCILy1, OCI-Ly3, and OCI-Ly8, were treated (FIG. 14B).

The test system of data set [3] is SU-DHL-5. Kind of data set: Cell death assay (CellTiter-Glo 2.0). The format is cell-based, human. As to conditions: 24 h ATSP-7041 pre-treatment, then BH3 mimetic. The method, then: as §1, §2
For data set [4] the following is noted: pipettable melt of PEG-SS—PPS and PEG(500)DME.
[5] abbreviates: 24 h ATSP-7041 pre-treatment vs vehicle, washed, then BH3 mimetic, WTp53 lines.

Where two headings read alike, the source gives them in different places.

The results in this text go back to patent publication US20240033373A1, “TARGETED, INTRACELLULAR DELIVERY OF THERAPEUTIC PEPTIDES USING SUPRAMOLECULAR NANOMATERIALS” (The University of Chicago, priority 2020, published 2024).

Take `Cc1c(-c2ccc(N3CCc4cccc(C(=O)Nc5nc6ccccc6s5)c4C3)nc2C(=O)O)cnn1CC12CC3CC(CC(C3)C1)C2` [A-1331852]: the “change in cell death sensitivity after p53-reactivation” value in data set [1] (setting [5]) is listed as “no notable change in sensitivity”.
Same read-out and setting: then `CC1(C)CCC(CN2CCN(c3ccc(C(=O)NS(=O)(=O)c4ccc(NCC5CCOCC5)c([N+](=O)[O-])c4)c(Oc4cnc5[nH]ccc5c4)c3)CC2)=C(c2ccc(Cl)cc2)C1` [ABT-199], with “no notable change in sensitivity”.
Consider `Cc1c(-c2c(-c3ccc(F)o3)sc3ncnc(O[C@H](Cc4ccccc4OCc4ccnn4CC(F)(F)F)C(=O)O)c23)ccc(OCCN2CCN(C)CC2)c1Cl` [S63845], for which the “change in cell death sensitivity after p53-reactivation” value is listed as “made much more sensitive” in data set [2], “made much more sensitive” in data set [3] and “much more sensitive” in data set [1]. Moreover, in data set [4], the “solubility in polymer melt” value is given as “highly soluble”.
